Measured values published in patent US9486447B2, “Compositions and methods for controlling neuronal excitation” (The General Hospital Corporation, priority 2011, dated 2016).

Experiments:
[1] = Crossing of the epidermis after topical application; format: in vivo, human; conditions: humans as well as zebrafish
Excerpt: As described herein, photo-sensitive TrpA1 agonists can be bioavailable. […] In some embodiments, a photo-sensitive TrpA1 agonist can be bioavailable when administered systemically. […] In some embodiments, oral administration of a photo-sensitive TrpA1 agonist can be considered for any method described herein.
Photo-sensitive TrpA1 agonists described herein can be administered by any delivery method known in the art, including but not limited to, injection; parenteral, intravenous, intramuscular, subcutaneous, transdermal, airway (aerosol), pulmonary, direct application, microsurgery, endoscopic surgery, topically, orally, vaginally and/or by contact with the gastro-intestinal lumen. […] This would agonist to all, or at least a variety of tissues, depending e.g. upon design/modification of the agonist to limit or expand systemic bioavailability such that electromagnetic radiation applied to any desired location would be expected to activate neuronal activity at the site of irradiation. In some embodiments, the photo-sensitive TrpA1 agonist can be administered systemically. In some embodiments, the photo-sensitive TrpA1 agonist can be administered locally.

[2] = target: hERG potassium channel (Homo sapiens, UniProt Q12809); assay: hERG inhibition, FluxOR system; format: cell-based; conditions: with or without prior exposure to light
Experimental: Optovin (PDSP 22594) was tested for hERG inhibition using the FluxOR system with cisapride as a positive control.

[3] = target: Alpha2A (Homo sapiens, UniProt P08913); assay: NIMH PDSP binding assay; conditions: primary screening, mean of N = 4 determinations
Chain of Alpha2A (P08913 whole entry): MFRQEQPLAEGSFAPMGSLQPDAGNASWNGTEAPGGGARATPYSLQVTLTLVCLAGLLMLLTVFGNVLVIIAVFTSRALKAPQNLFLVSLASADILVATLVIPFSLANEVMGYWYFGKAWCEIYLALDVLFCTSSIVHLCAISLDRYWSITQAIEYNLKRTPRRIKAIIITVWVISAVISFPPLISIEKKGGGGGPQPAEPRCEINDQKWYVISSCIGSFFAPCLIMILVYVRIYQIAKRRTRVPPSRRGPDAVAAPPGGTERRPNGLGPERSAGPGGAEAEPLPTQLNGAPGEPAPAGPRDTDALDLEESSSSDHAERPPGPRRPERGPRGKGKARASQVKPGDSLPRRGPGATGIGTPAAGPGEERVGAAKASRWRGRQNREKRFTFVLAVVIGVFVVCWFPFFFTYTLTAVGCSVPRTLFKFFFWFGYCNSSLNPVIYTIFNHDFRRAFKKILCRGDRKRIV
Excerpt: (§1) To determine if optovin's mechanism of action could be predicted via behavioral profiling^30,32, optovin's behavioral profile was compared to the behavioral profiles of 700 annotated neuroactive compounds tested in triplicate. These compounds include ligands targeting the adrenergic, serotonergic, histaminergic, dopaminergic, cholinergic and glutamatergic pathways. […] To gain insight into optovin's mechanism of action, optovin and two active optovin analogs were profiled using the National Institutes of Mental Health Psychoactive Drug Screening Program (NIMH PDSP) to determine their activities against a panel of human and rodent CNS receptors, channels and transporters.
(§2) Activity determinations were generously provided by the National Institute of Mental Health's Psychoactive Drug Screening Program, Contract # HHSN-271-2008-00025-C(NIMH PDSP). Complete assay details are found on-line at: http://pdsp.med.unc.edu/UNC-CH %20Protocol %20Book.pdf

[4] = target: T1, DAT (Homo sapiens, UniProt Q01959); assay: NIMH PDSP binding assay; conditions: primary screening, mean of N = 4 determinations
T1 construct: NIMH PDSP
T1 sequence (Q01959 whole entry, species assumed): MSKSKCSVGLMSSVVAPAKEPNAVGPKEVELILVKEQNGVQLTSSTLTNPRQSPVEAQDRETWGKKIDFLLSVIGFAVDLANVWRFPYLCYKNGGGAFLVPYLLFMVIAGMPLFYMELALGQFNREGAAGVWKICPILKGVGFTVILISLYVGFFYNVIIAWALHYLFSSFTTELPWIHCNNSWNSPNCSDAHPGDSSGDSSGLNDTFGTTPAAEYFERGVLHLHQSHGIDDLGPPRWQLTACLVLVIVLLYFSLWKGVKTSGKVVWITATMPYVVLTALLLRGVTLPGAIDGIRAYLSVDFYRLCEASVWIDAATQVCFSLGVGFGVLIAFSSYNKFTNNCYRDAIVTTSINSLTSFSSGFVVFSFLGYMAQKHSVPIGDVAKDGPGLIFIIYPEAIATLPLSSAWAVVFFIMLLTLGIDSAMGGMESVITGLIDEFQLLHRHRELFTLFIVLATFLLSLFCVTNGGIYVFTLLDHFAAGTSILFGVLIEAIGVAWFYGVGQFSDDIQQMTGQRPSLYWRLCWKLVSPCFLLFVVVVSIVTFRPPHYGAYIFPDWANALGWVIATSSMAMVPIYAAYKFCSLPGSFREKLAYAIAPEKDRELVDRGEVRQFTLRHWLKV
Excerpt: as §1, §2

[5] = target: T2, NET (Homo sapiens, UniProt P23975); assay: NIMH PDSP binding assay; conditions: primary screening, mean of N = 4 determinations
T2 construct: NIMH PDSP
Excerpt: as §1, §2

[6] = target: PBR (Rattus norvegicus, UniProt P16257); assay: NIMH PDSP binding assay; conditions: primary screening, mean of N = 4 determinations
Excerpt: as §1, §2

[7] = target: 5-HT2C (Homo sapiens, UniProt P28335); assay: NIMH PDSP binding assay; conditions: primary screening, mean of N = 4 determinations
Excerpt: as §1, §2

[8] = target: Alpha1D (Homo sapiens, UniProt P25100); assay: NIMH PDSP binding assay; conditions: primary screening, mean of N = 4 determinations
Excerpt: as §1, §2

[9] = target: 5-ht1e (Homo sapiens, UniProt P28566); assay: NIMH PDSP binding assay; conditions: primary screening, mean of N = 4 determinations
Excerpt: as §1, §2

[10] = target: Alpha1B (Homo sapiens, UniProt P35368); assay: NIMH PDSP binding assay; conditions: primary screening, mean of N = 4 determinations
Excerpt: as §1, §2

[11] = target: T3, D2 (Homo sapiens, UniProt P14416); assay: NIMH PDSP binding assay; conditions: primary screening, mean of N = 4 determinations
T3 construct: NIMH PDSP
Excerpt: as §1, §2

[12] = target: T4, Beta2 (Homo sapiens, UniProt P07550); assay: NIMH PDSP binding assay; conditions: primary screening, mean of N = 4 determinations
T4 construct: NIMH PDSP
T4 sequence (P07550 whole entry): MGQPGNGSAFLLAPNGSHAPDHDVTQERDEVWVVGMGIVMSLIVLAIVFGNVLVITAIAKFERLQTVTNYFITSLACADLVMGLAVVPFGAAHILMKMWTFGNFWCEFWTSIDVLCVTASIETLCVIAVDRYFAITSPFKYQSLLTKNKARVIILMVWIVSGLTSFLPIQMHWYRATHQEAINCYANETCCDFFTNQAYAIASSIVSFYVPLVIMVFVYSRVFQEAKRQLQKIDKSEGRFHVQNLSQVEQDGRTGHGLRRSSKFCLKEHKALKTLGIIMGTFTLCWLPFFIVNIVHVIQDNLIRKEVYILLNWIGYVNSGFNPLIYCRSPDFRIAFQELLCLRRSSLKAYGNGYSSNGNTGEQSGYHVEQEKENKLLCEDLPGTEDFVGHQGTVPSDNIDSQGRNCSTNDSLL
Excerpt: as §1, §2

[13] = target: T5, D4 (Homo sapiens, UniProt P21917); assay: NIMH PDSP binding assay; conditions: primary screening, mean of N = 4 determinations
T5 construct: NIMH PDSP
Excerpt: as §1, §2

[14] = test system: Sigma 1; assay: NIMH PDSP binding assay; conditions: primary screening, mean of N = 4 determinations
Excerpt: as §1, §2

[15] = target: A4B2 (Rattus norvegicus, UniProt P09483+P12390); assay: NIMH PDSP binding assay; conditions: primary screening, mean of N = 4 determinations
Chain of A4B2 (P09483 31-630): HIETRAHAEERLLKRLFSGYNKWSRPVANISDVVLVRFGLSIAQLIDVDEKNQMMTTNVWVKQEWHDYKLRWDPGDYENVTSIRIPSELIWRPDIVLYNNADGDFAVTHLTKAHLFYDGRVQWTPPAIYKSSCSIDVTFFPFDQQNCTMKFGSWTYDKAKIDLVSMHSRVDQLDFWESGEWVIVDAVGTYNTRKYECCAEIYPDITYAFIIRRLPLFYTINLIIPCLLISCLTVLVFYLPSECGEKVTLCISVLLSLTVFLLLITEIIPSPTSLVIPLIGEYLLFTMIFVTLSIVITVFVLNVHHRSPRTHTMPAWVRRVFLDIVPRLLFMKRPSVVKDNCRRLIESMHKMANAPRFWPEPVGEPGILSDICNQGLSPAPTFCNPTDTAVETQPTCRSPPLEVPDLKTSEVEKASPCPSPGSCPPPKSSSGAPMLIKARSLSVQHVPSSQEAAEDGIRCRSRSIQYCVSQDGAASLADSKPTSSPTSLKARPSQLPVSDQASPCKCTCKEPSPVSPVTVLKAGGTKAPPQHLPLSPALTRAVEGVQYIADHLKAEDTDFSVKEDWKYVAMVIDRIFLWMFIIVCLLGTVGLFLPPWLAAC
Chain of A4B2 (P12390 25-500): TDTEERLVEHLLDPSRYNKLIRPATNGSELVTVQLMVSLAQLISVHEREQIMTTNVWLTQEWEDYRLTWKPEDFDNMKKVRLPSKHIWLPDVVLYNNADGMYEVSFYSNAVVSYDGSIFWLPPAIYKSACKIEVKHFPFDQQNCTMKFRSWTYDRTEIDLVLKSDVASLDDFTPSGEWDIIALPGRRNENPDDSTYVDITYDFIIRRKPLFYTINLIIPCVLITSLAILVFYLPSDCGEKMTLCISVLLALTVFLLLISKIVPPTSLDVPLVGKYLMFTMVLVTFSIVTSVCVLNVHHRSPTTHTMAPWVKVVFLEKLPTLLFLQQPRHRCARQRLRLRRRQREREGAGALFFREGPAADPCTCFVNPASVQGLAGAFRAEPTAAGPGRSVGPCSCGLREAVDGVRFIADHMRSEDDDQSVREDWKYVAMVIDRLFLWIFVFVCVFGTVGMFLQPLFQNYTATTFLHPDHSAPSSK
Excerpt: as §1, §2

[16] = target: T6, M3 (Homo sapiens, UniProt P20309); assay: NIMH PDSP binding assay; conditions: primary screening, mean of N = 4 determinations
T6 construct: NIMH PDSP
Excerpt: as §1, §2

[17] = target: 5-ht5a (Homo sapiens, UniProt P47898); assay: NIMH PDSP binding assay; conditions: primary screening, mean of N = 4 determinations
Chain of 5-ht5a (P47898 whole entry, species assumed): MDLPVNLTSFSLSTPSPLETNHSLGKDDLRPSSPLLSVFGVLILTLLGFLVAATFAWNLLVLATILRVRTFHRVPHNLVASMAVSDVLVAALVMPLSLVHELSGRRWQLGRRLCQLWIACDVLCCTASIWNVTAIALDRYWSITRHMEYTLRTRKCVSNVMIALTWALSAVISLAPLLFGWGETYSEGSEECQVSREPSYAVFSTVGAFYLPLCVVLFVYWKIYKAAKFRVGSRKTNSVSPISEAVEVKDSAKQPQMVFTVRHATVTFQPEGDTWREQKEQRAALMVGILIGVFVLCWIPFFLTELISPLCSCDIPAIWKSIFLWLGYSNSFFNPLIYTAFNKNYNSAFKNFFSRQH
Excerpt: as §1, §2

[18] = target: A3B2 (Rattus norvegicus, UniProt P04757+P12390); assay: NIMH PDSP binding assay; conditions: primary screening, mean of N = 4 determinations
Excerpt: as §1, §2

[19] = target: T7, M4 (Homo sapiens, UniProt P08173); assay: NIMH PDSP binding assay; conditions: primary screening, mean of N = 4 determinations
T7 construct: NIMH PDSP
Excerpt: as §1, §2

[20] = target: Alpha2B (Homo sapiens, UniProt P18089); assay: NIMH PDSP binding assay; conditions: primary screening, mean of N = 4 determinations
Excerpt: as §1, §2

[21] = test system: BZP Rat Brain Site; assay: NIMH PDSP binding assay; conditions: primary screening, mean of N = 4 determinations
Excerpt: as §1, §2

[22] = target: 5-HT1D (Homo sapiens, UniProt P28221); assay: NIMH PDSP binding assay; conditions: primary screening, mean of N = 4 determinations
Chain of 5-HT1D (P28221 whole entry, species assumed): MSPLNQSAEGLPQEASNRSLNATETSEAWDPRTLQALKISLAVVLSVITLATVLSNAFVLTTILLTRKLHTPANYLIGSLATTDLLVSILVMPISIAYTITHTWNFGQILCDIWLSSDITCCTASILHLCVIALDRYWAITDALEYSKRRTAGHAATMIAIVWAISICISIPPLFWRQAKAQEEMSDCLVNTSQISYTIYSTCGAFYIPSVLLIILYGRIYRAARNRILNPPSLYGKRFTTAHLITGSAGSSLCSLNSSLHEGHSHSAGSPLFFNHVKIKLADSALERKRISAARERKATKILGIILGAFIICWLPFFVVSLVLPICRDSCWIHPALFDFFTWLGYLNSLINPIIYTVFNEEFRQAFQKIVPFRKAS
Excerpt: as §1, §2

[23] = target: A2B2 (Rattus norvegicus, UniProt P12389+P12390); assay: NIMH PDSP binding assay; conditions: primary screening, mean of N = 4 determinations
Chain of A2B2 (P12389 28-511): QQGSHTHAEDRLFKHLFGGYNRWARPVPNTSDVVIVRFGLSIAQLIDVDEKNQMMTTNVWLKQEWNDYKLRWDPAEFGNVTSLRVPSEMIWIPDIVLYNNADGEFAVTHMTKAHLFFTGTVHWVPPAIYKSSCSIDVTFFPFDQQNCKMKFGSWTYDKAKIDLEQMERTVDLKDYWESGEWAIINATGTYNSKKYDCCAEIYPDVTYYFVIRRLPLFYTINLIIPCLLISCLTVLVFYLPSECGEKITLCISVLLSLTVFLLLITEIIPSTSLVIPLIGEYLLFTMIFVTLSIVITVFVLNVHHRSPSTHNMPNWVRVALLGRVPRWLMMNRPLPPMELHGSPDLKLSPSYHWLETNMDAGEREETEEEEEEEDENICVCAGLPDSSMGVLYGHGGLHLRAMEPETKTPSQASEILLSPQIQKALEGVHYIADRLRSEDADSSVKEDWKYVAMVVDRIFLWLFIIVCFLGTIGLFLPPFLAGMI
Chain of A2B2 (P12390 25-500): as the sequence (P12390 25-500) above
Excerpt: as §1, §2

[24] = target: T8, human TrpA1 (hTrpA1) (Homo sapiens, UniProt O75762); assay: Whole-cell patch clamp in transfected HEK293T cells; format: cell-based; conditions: 10 μM, following photo-stimulation (405 nm)
T8 construct: expressed in transfected cells; host or cells: HEK293 / HEK293T
T8 sequence (O75762 whole entry): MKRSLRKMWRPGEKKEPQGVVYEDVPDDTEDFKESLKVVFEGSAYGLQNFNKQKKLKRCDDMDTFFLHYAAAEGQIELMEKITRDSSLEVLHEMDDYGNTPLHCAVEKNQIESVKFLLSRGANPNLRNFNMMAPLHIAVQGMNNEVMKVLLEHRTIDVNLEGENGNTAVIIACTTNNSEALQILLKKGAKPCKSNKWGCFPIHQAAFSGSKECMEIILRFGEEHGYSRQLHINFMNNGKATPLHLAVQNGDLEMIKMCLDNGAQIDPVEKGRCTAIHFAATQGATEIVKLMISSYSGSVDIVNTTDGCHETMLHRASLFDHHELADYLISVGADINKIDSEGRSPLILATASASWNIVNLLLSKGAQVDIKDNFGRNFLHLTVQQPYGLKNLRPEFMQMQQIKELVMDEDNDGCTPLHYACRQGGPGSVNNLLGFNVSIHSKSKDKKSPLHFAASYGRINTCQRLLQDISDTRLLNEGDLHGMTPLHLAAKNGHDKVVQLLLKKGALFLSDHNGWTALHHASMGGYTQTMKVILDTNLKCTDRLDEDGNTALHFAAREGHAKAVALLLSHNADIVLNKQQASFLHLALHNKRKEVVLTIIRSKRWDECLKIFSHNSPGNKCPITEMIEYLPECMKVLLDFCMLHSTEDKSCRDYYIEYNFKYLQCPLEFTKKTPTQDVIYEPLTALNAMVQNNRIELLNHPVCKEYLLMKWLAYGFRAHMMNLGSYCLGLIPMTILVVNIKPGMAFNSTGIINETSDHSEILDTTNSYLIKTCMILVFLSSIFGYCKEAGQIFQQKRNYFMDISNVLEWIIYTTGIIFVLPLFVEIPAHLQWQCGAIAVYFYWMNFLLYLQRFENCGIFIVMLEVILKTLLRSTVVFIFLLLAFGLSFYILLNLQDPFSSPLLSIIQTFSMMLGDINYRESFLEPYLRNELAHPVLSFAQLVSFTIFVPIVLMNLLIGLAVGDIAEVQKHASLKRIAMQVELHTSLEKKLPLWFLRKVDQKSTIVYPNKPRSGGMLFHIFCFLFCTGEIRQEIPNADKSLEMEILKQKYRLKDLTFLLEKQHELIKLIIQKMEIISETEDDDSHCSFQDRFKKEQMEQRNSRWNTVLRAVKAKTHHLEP
Experimental: To determine if TRPA1 is sufficient for optovin activity, current density amplitudes were analyzed via whole-cell patch clamping in HEK293T cells transfected with the human TrpA1 (hTrpA1) gene.
HEK293 cells were plated upon poly-lysine coated cover slips and transiently transfected with human TRPA1. Voltage clamp recordings were made in the whole-cell configuration 48 hours after transfection using glass electrodes with 2-4M ohm resistance when filled with (in mM) 140 CsCl, 2 Mg2ATP3, 2 MgCl, 5 EGTA, and 10 HEPES (pH adjusted to 7.2 with CsOH) and while bathed at room temperature in extracellular solution containing (in mM) 150 NaCl, 5.4 KCl, 1.8 CaCl2, 1 MgCl, and 5 mM HEPES (pH adjusted to 7.4 with NaOH). A voltage ramp protocol from −80 mV to +80 mV over 400 ms was repeated every 5 seconds during the following conditions: while the cell was dialyzed by the pipette, followed by at least 60 seconds of illumination with 405 nm light, after which optovin (10 μM) containing extracellular solution was perfused into the bath, followed by 1 minute of illumination. Current elicited at holding potentials of +/−70 mV were used to characterize TRPA1 activation.

Cc1cc(/C=C2/SC(=S)NC2=O)c(C)n1-c1cccnc1 [optovin]
crossing the epidermis to reach underlying muscles at an effective concentration [1]: able to cross the epidermis | effect on hERG activity [2]: no effect on hERG activity | Avg % inhibition (Alpha2A) [3]: 40.5% | Avg % inhibition (DAT) [4]: 1.5% | Avg % inhibition (NET) [5]: −1.3% | Avg % inhibition (PBR) [6]: −11.3% | Avg % inhibition (5-HT2C) [7]: 7.0% | Avg % inhibition (Alpha1D) [8]: 30.4% | Avg % inhibition (5-ht1e) [9]: −21.5% | Avg % inhibition (Alpha1B) [10]: 7.2% | Avg % inhibition (D2) [11]: −6.8% | Avg % inhibition (Beta2) [12]: −3.8% | Avg % inhibition (D4) [13]: 0.2% | Avg % inhibition (Sigma 1) [14]: −13.7% | Avg % inhibition (A4B2) [15]: −26.8% | Avg % inhibition (A4B2**) [15]: −29.1% | Avg % inhibition (M3) [16]: 9.1% | Avg % inhibition (5-ht5a) [17]: −17.7% | Avg % inhibition (A3B2) [18]: −5.6% | Avg % inhibition (M4) [19]: 3.5% | Avg % inhibition (Alpha2B) [20]: 8.9% | Avg % inhibition (BZP Rat Brain Site) [21]: 5.3% | Avg % inhibition (5-HT1D) [22]: 12.9% | Avg % inhibition (A2B2) [23]: −19.2% | current density amplitudes in response to positive voltage steps [24]: significantly increased
